Measurements: paper PMC8910697, “Development of VPC-70619, a Small-Molecule N-Myc Inhibitor as a Potential Therapy for Neuroendocrine Prostate Cancer” (International Journal of Molecular Sciences, 2022)
“Also recorded” adds a separate entry of the source. Where two headings read alike, the source gives them in different places.

Tests used:
[1] = tested on: NCI-H660 cells; assay: Cell viability (CellTiter-Glo), NCI-H660; type: cell-based
Method: (§1) Viability of N-Myc positive (IMR32and NCI-H660) and negative (HO15.19) cells were determined using the CellTiter-Glo Luminescent Cell Viability Assay (Promega cat. G7570) (Madison, WI, USA). Cells were seeded into a 96-well white plate with a clear bottom: 10,000 cells per well for the IMR32 cells cultured in EMEM supplemented with 10% FBS, 2000 HO15.19 cells per well in Eagle’s minimum essential medium (EMEM) supplemented with 10% FBS, and 2000 cells per well for the NCI-H660 neuroendocrine cells cultured in RPMI supplemented 5% FBS, 1% Insulin-Transferrin-Selenium (Thermo Fisher, 41400-045), 10nM b-estradiol (Sigma, E8875), 10nM hydrocortisone (Sigma H0888) and 1% matrigel. Following 24 h incubation, the cells were treated with serial dilutions of the derivatives along with the respective parental compound starting at 25 μM for 72 h. Cell Titer Glo was added to each well at a ratio of 1:1 and incubated on a shaker at RT for 2 min. Luminescence and IC50 was measured with the TECAN InfiniteM200 plate reader (Männedorf, Switzerland).

[2] = Microsomal stability assay; type: in vitro ADME, Mouse
Method: A microsomal stability assay was performed using the Corning Gentest NADPH Regenerating System (Corning, #451220/41200) (Corning, NY, USA). Mouse liver microsomes (MLM) (Xenotech, M1000) (Kansas City, KS, USA) and compounds were diluted to a final concentration of 0.15 mg/mL and 1 μM respectively. These were prepared into a 500 μL solution with 100 mM potassium phosphate buffer (pH = 7.4). Imipramine was used as a control. NADPH solutions A and B were mixed in a 5:1 ratio, and 24 μL of the NADPH was added to each of the MLM/compound samples at 30 s intervals. At time points 10, 20, and 45 min, 100 μL of reaction was added to the stopping solution. Samples were centrifuged at 18,000× g and incubated at 4 °C for 10 min. Samples were then loaded onto a LC-MS 96-well plate for analysis.

[3] = tested on: HO15.19 cells; assay: Cell viability counter-screen (CellTiter-Glo), Myc-negative HO15.19; type: cell-based
Method: (§2) The 54 compounds were tested at 10 µM for their inhibition of the IMR32 human neuroblastoma cell line, in which the MYCN gene is amplified and actively expressed (Table 3). HO15.19 cell line (Myc-negative) was used in parallel as a compound specificity control.
as §1

[4] = tested on: IMR32 cells; assay: Cell viability (CellTiter-Glo), IMR32; type: cell-based; conditions: Homo sapiens, IMR-32
Method: as §2, §1

[5] = molecular target: T1, N-Myc-Max heterodimer (Homo sapiens, UniProt P04198+P61244); assay: Proximity ligation assay (PLA) in LNCaP-NMYC cells; type: cell-based; conditions: 10 µM, 72 h
T1 construct: expressed in transfected cells; host or cells: LNCaP-NMYC cells (gift from David Rickman)
Method: To confirm that 70619 could disrupt the binding of N-Myc-Max DBD to DNA, we performed a bio-layer interferometry (BLI) assay where we immobilized biotinylated E-box sequence on streptavidin sensors, and we evaluated recombinant N-Myc-Max binding to the DNA in the presence of increasing concentrations of VPC-70619. […] We observed a similar number of interactions when comparing the ratio of signal per nuclei in the presence or absence of the compound.
LNCaP-NMYC cells were seeded on coverslips at a density of 10^5 cells per well of a 6-well plate. After incubation for 24 h the cells were treated with 10 μM of either 10074-G5 or 70619 for 72 h. The coverslips were fixed with methanol:acetone (3:1) and incubated with primary antibodies n-Myc Antibody (NMYC-1) (Novus Biologicals NB200-109) (Littleton, CO, USA) and MAX Antibody (C-17) (Santa Cruz sc-197) (Dallas, TX, USA) overnight at 4 °C. PLA was conducted using the Duolink In Situ Detection Reagents Red kit (Sigma DUO92008) according to the manufacturer’s protocol. The coverslips were then mounted on slides with VECTASHIELD mounting media with DAPI, and images were taken on ZEISS 780 confocal microscope at 40× magnification.

[6] = Pharmacokinetics after IP and PO dosing; type: in vivo, male Balb/c mice; conditions: 10 mg/kg; for half-life / Cmax: male, Balb/c, mouse, plasma; for Cmax: 70551 in 75:25 PG/PEG 400, 70619 in 20:80 Kolliphor EL
Method: In order to characterize VPC-70619 as a drug candidate against N-myc, its pharmacokinetic (PK) characteristics were evaluated in Balb/c mice following intraperitoneal (IP) and peroral (PO) administrations. As presented in Figure 5, we determined the PK properties of VPC-70619 and compared it to the parental molecule, VPC-70551. […] The clearance of 70551 for PO delivery was extremely slow, and we could not determine the T1/2 in the experimental conditions used for this assay. […] Therefore, VPC-70619 was deemed to have appropriate efficacy in vivo, and a better pharmacokinetic profile due to higher bioavailability for both oral and intraperitoneal administration.
Bienta Enamine Biology Services (Kyiv, Ukraine) conducted PK studies according to the Enamine PK study protocols and Institutional Animal Care and Use Guidelines. The PK studies were reviewed and approved by the Bienta Animal Care and Use Committee (BACUC) under the project identification codes PK-VPC-112618 (approved 17 December 2018) and PK-VPC-101119 (approved 21 October 2019), for VPC-70551 and […], respectively. Evaluation of 70619 and 70551 was conducted in male Balb/c mice through intraperitoneal (IP) and peroral (PO) administration. Measurements were taken at six time points: 5, 15, 60, 120, 240, and 360 min for IP; 15, 30, 60, 120, 240, and 480 min for PO. Four mice were included in each treatment group for each time point; one mouse each for IP and PO was included as a control. Initial target administration for both IP and PO was 10 mg/kg dose level, 2 mg/mL dose concentration, and 5 mL/kg dose volume. Concentration of the compounds was evaluated in the plasma samples using an LC-MS/MS system.

T1 sequence (P04198 whole entry): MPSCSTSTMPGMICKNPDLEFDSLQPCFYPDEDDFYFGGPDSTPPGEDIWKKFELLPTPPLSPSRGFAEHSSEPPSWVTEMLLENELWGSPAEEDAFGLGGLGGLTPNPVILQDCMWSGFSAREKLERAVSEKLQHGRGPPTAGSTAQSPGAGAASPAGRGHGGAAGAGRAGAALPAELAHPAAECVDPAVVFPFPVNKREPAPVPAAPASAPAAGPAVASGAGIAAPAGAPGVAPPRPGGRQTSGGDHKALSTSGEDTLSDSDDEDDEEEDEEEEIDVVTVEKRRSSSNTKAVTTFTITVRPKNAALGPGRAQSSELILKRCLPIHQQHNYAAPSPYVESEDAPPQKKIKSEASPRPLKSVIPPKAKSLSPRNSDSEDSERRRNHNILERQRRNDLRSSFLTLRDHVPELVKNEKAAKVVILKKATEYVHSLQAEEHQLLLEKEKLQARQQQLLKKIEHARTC
T1 sequence (P61244 whole entry): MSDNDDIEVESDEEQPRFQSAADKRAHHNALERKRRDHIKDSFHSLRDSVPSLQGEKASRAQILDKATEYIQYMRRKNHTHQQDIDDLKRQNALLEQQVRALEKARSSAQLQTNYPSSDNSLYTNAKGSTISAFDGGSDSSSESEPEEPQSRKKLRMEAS

N#Cc1ccc(NNC(=O)c2ccc(C#N)c(Cl)c2)c(C(F)(F)F)c1 [compound 70619]
IC50 ([1]; NCI-H660, 72 h, read-out: IC50 cell proliferation in NCI-H660): 7 µM | inhibition of NCI-H660 (in words) ([1]; NEPC in vitro model): good inhibition | increase in microsomal stability compared to VPC-70551 ([2]; half-life 2310 min vs 140 min): 15 fold | half-life at 1 μM ([2]; mouse, mouse liver microsomes, pH 7.4, mouse liver microsomes, 1 µM compound, read-out: microsomal half-life (T1/2)): 38.5 h | % Inhibition in HO15.19 (10 µM) ([3]; 10 µM, Myc-negative specificity control): 14.1% | inhibition at 10 µM ([3]; Rattus norvegicus, HO15.19, 10 µM, Myc-negative specificity control): 14% | cytotoxicity in Myc-negative HO15.19 (in words) ([3]; counter-screen): did not report any strong inhibitory effects; also recorded: minimal cytotoxicity | inhibition at 10 µM [4]: 99.4% | effect on N-Myc-Max heterodimer interactions (in words) [5]: does not disrupt Myc-Max complexes | effect on N-Myc-Max heterodimer interactions (in words) ([5]; listed as VPC-70619): does not disrupt the N-Myc-Max heterodimer formation | half-life ([6]; ip, read-out: plasma half-life (T1/2) IP): 5.5 h | half-life ([6]; po, read-out: plasma half-life (T1/2) PO): 7.12 h | Cmax ([6]; IP, read-out: Cmax IP): 29500 ng/mL | Cmax ([6]; PO, read-out: Cmax PO): 24000 ng/mL | adverse effects / signs of toxicity in PK animals ([6]; single dose IP or PO): No signs of toxicity
